# Assay results reported in ChEMBL document CHEMBL5543142, “Discovery of YFJ-36: Design, Synthesis, and Antibacterial Activities of Catechol-Conjugated β-Lactams against Gram-Negative Bacteria” (J Med Chem, 2024).
# Experiments:
# Format in all cases: functional
# Settings in all cases: time 18-20 hrs
# [1] = system: Escherichia coli; experiment: Antibacterial activity against ESBL-producing multidrug-resistant Escherichia coli clinical isolate 14-2 assessed as inhibition of bacterial growth incubated for 18 to 20 hrs by two fold serial dilution assay
# [2] = system: Pseudomonas aeruginosa; experiment: Antibacterial activity against IMP-4 producing multidrug-resistant Pseudomonas aeruginosa clinical isolate 15-4 assessed as inhibition of bacterial growth incubated for 18 to 20 hrs by two fold serial dilution assay
# [3] = system: Acinetobacter baumannii; experiment: Antibacterial activity against OXA-23 producing multidrug-resistant Acinetobacter baumannii clinical isolate 15-3 assessed as inhibition of bacterial growth incubated for 18 to 20 hrs by two fold serial dilution assay
# [4] = system: Klebsiella pneumoniae; experiment: Antibacterial activity against KPC-2 producing multidrug-resistant Klebsiella pneumoniae clinical isolate 15-1 assessed as inhibition of bacterial growth incubated for 18 to 20 hrs by two fold serial dilution assay
# [5] = system: Klebsiella pneumoniae; experiment: Antibacterial activity against KPC-2 producing multidrug-resistant Klebsiella pneumoniae clinical isolate 15-2 assessed as inhibition of bacterial growth incubated for 18 to 20 hrs by two fold serial dilution assay
# [6] = system: Pseudomonas aeruginosa; experiment: Antibacterial activity against IMP-4 producing multidrug-resistant Pseudomonas aeruginosa clinical isolate 15-5 assessed as inhibition of bacterial growth incubated for 18 to 20 hrs by two fold serial dilution assay
# [7] = system: Acinetobacter baumannii; experiment: Antibacterial activity against OXA-23 producing multidrug-resistant Acinetobacter baumannii clinical isolate 15-2 assessed as inhibition of bacterial growth incubated for 18 to 20 hrs by two fold serial dilution assay
# [8] = system: Pseudomonas aeruginosa; experiment: Antibacterial activity against Pseudomonas aeruginosa ATCC 27853 assessed as inhibition of bacterial growth incubated for 18 to 20 hrs by two fold serial dilution assay
# [9] = system: Pseudomonas aeruginosa; experiment: Antibacterial activity against IMP-4 producing multidrug-resistant Pseudomonas aeruginosa clinical isolate 15-1 assessed as inhibition of bacterial growth incubated for 18 to 20 hrs by two fold serial dilution assay
# [10] = system: Escherichia coli; experiment: Antibacterial activity against ESBL-producing multidrug-resistant Escherichia coli clinical isolate 14-4 assessed as inhibition of bacterial growth incubated for 18 to 20 hrs by two fold serial dilution assay
# [11] = system: Klebsiella pneumoniae; experiment: Antibacterial activity against KPC-2 producing multidrug-resistant Klebsiella pneumoniae clinical isolate 15-3 assessed as inhibition of bacterial growth incubated for 18 to 20 hrs by two fold serial dilution assay
# [12] = system: Escherichia coli; experiment: Antibacterial activity against ESBL-producing multidrug-resistant Escherichia coli clinical isolate 14-1 assessed as inhibition of bacterial growth incubated for 18 to 20 hrs by two fold serial dilution assay
# [13] = system: Acinetobacter baumannii; experiment: Antibacterial activity against OXA-23 producing multidrug-resistant Acinetobacter baumannii clinical isolate 15-4 assessed as inhibition of bacterial growth incubated for 18 to 20 hrs by two fold serial dilution assay
# [14] = system: Klebsiella pneumoniae; experiment: Antibacterial activity against KPC-2 producing multidrug-resistant Klebsiella pneumoniae clinical isolate 15-5 assessed as inhibition of bacterial growth incubated for 18 to 20 hrs by two fold serial dilution assay
# [15] = system: Acinetobacter baumannii; experiment: Antibacterial activity against OXA-23 producing multidrug-resistant Acinetobacter baumannii clinical isolate 15-5 assessed as inhibition of bacterial growth incubated for 18 to 20 hrs by two fold serial dilution assay
# [16] = system: Acinetobacter baumannii; experiment: Antibacterial activity against OXA-23 producing multidrug-resistant Acinetobacter baumannii clinical isolate 15-1 assessed as inhibition of bacterial growth incubated for 18 to 20 hrs by two fold serial dilution assay
SMILES,MIC [1],MIC [2],MIC [3],MIC [4],MIC [5],MIC [6],MIC [7],MIC [8],MIC [9],MIC [10],MIC [11],MIC [12],MIC [13],MIC [14],MIC [15],MIC [16]
CC(C)C(O/N=C(\C(=O)N[C@@H]1C(=O)N2C(C(=O)O)=C(CSCCNC(=O)c3ccc(O)c(O)c3Cl)CS[C@H]12)c1csc(N)n1)C(=O)O.O=C(O)C(F)(F)F (some centres undefined),2 µg/mL,4 µg/mL,4 µg/mL,0.5 µg/mL,0.5 µg/mL,4 µg/mL,4 µg/mL,8 µg/mL,2 µg/mL,0.5 µg/mL,0.5 µg/mL,0.06 µg/mL,4 µg/mL,0.25 µg/mL,4 µg/mL,8 µg/mL
CC(C)(C)C(O/N=C(\C(=O)N[C@@H]1C(=O)N2C(C(=O)O)=C(CS[C@H]3CC[C@@H](NC(=O)c4ccc(O)c(O)c4Cl)CC3)CS[C@H]12)c1csc(N)n1)C(=O)O.O=C(O)C(F)(F)F (some centres undefined),4 µg/mL,16 µg/mL,8 µg/mL,4 µg/mL,16 µg/mL,8 µg/mL,4 µg/mL,8 µg/mL,8 µg/mL,4 µg/mL,32 µg/mL,0.5 µg/mL,4 µg/mL,1 µg/mL,8 µg/mL,8 µg/mL
Nc1nc(/C(=N/OC2(C(=O)O)CCC2)C(=O)N[C@@H]2C(=O)N3C(C(=O)O)=C(CSCCNC(=O)c4ccc(O)c(O)c4Cl)CS[C@H]23)cs1.O=C(O)C(F)(F)F,2 µg/mL,1 µg/mL,32 µg/mL,2 µg/mL,4 µg/mL,2 µg/mL,32 µg/mL,2 µg/mL,1 µg/mL,32 µg/mL,8 µg/mL,0.25 µg/mL,32 µg/mL,4 µg/mL,32 µg/mL,32 µg/mL
CC(C)(O/N=C(\C(=O)N[C@@H]1C(=O)N2C(C(=O)O)=C(CSCCNC(=O)c3ccc(O)c(O)c3Cl)CS[C@H]12)c1csc(N)n1)C(=O)O.O=C(O)C(F)(F)F,2 µg/mL,4 µg/mL,32 µg/mL,8 µg/mL,4 µg/mL,4 µg/mL,32 µg/mL,0.5 µg/mL,2 µg/mL,1 µg/mL,8 µg/mL,0.25 µg/mL,32 µg/mL,2 µg/mL,64 µg/mL,32 µg/mL
CC(C)(O/N=C(\C(=O)N[C@@H]1C(=O)N2C(C(=O)O)=C(CSCCCNC(=O)c3ccc(O)c(O)c3Cl)CS[C@H]12)c1csc(N)n1)C(=O)O.O=C(O)C(F)(F)F,2 µg/mL,2 µg/mL,32 µg/mL,16 µg/mL,4 µg/mL,4 µg/mL,64 µg/mL,4 µg/mL,1 µg/mL,16 µg/mL,8 µg/mL,0.125 µg/mL,64 µg/mL,4 µg/mL,64 µg/mL,32 µg/mL
CC(C)(O/N=C(\C(=O)N[C@@H]1C(=O)N2C(C(=O)O)=C(CS[C@@H]3C[C@H]4CC[C@@H](C3)N4C(=O)c3ccc(O)c(O)c3Cl)CS[C@H]12)c1csc(N)n1)C(=O)O.O=C(O)C(F)(F)F,16 µg/mL,16 µg/mL,64 µg/mL,2 µg/mL,1 µg/mL,16 µg/mL,64 µg/mL,2 µg/mL,16 µg/mL,16 µg/mL,64 µg/mL,0.25 µg/mL,> 64 µg/mL,1 µg/mL,> 64 µg/mL,64 µg/mL
CC(C)(O/N=C(\C(=O)N[C@@H]1C(=O)N2C(C(=O)O)=C(CSCCOCCNC(=O)c3ccc(O)c(O)c3Cl)CS[C@H]12)c1csc(N)n1)C(=O)O.O=C(O)C(F)(F)F,2 µg/mL,1 µg/mL,32 µg/mL,8 µg/mL,4 µg/mL,2 µg/mL,32 µg/mL,4 µg/mL,1 µg/mL,32 µg/mL,8 µg/mL,0.25 µg/mL,64 µg/mL,4 µg/mL,32 µg/mL,32 µg/mL
Nc1nc(/C(=N/OC2(C(=O)O)CC2)C(=O)N[C@@H]2C(=O)N3C(C(=O)O)=C(CSCCNC(=O)c4ccc(O)c(O)c4Cl)CS[C@H]23)cs1.O=C(O)C(F)(F)F,2 µg/mL,1 µg/mL,32 µg/mL,16 µg/mL,32 µg/mL,4 µg/mL,64 µg/mL,4 µg/mL,1 µg/mL,64 µg/mL,> 64 µg/mL,0.5 µg/mL,64 µg/mL,32 µg/mL,64 µg/mL,64 µg/mL
CC(C)(O/N=C(\C(=O)N[C@@H]1C(=O)N2C(C(=O)O)=C(CS[C@H]3CC[C@@H](NC(=O)c4ccc(O)c(O)c4Cl)CC3)CS[C@H]12)c1csc(N)n1)C(=O)O.O=C(O)C(F)(F)F,4 µg/mL,1 µg/mL,32 µg/mL,4 µg/mL,4 µg/mL,2 µg/mL,32 µg/mL,8 µg/mL,1 µg/mL,1 µg/mL,4 µg/mL,0.125 µg/mL,32 µg/mL,8 µg/mL,32 µg/mL,32 µg/mL
